In the supplement of paper PMC9663587:

What was measured:
[1] = compound: CC(=O)c1c(C)c2cnc(Nc3ccc(N4CCNCC4)cn3)nc2n(C2CCCC2)c1=O; experiment: increase in dead-cell fraction, 72 h; higher = more death;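 further: breast cancer cell lines in 384-well plates, stained with Hoechst plus LIVE/DEAD far red dye and imaged, cells above an LDR intensity threshold counted dead, Hoechst-negative corpses included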
THZ1 [2] = compound: T1, CN(C)C/C=C/C(=O)Nc1ccc(C(=O)Nc2cccc(Nc3ncc(Cl)c(-c4c[nH]c5ccccc45)n3)c2)cc1 [THZ1]; experiment: as above
YKL-5-124 = compound: C=CC(=O)Nc1ccc(C(=O)Nc2[nH]nc3c2CN(C(=O)N[C@H](CN(C)C)c2ccccc2)C3(C)C)cc1 [YKL-5-124]; experiment: as above
Flavopiridol = compound: CN1CC[C@H](c2c(O)cc(O)c3c(=O)cc(-c4ccccc4Cl)oc23)[C@H](O)C1 [Flavopiridol]; experiment: as above
[3] = compound: CCN1CCN(Cc2ccc(Nc3ncc(F)c(-c4cc(F)c5nc(C)n(C(C)C)c5c4)n3)nc2)CC1; experiment: as above
BSJ-03-123 = compound: CC(=O)c1c(C)c2cnc(Nc3ccc(N4CCN(CCOCCOCCOCCNC(=O)COc5cccc6c5C(=O)N(C5CCC(=O)NC5=O)C6=O)CC4)cn3)nc2n(C2CCCC2)c1=O [BSJ-03-123]; experiment: as above
THZ531 = compound: CN(C)C/C=C/C(=O)Nc1ccc(C(=O)N2CCC[C@@H](Nc3ncc(Cl)c(-c4c[nH]c5ccccc45)n3)C2)cc1 [THZ531]; experiment: as above
[4] = compound: CCc1cnn2c(NCc3ccc[n+]([O-])c3)cc(N3CCCC[C@H]3CCO)nc12; experiment: as above
LEE011/Ribociclib = compound: CN(C)C(=O)c1cc2cnc(Nc3ccc(N4CCNCC4)cn3)nc2n1C1CCCC1 [LEE011/Ribociclib]; experiment: as above
Neratinib/HKI272 [5] = compound: T2, CCOc1cc2ncc(C#N)c(Nc3ccc(OCc4ccccn4)c(Cl)c3)c2cc1NC(=O)/C=C/CN(C)C [Neratinib/HKI272]; experiment: as above
THZ1 [6] = compound: T1, THZ1; experiment: GR value, 72 h; higher = faster growth (1 = untreated, <0 = killing);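 further: breast cancer and non-malignant breast epithelial lines, nine half-log doses, viable cells counted by Hoechst and LIVE/DEAD dye imaging versus time-zero plates and DMSO controls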
Neratinib/HKI272 [7] = compound: T2, Neratinib/HKI272; experiment: as above

SUM149
increase in dead-cell fraction ([1]; 0.0003162 µM): 0.0026 | increase in dead-cell fraction ([1]; 0.001 µM): 0.0019 | increase in dead-cell fraction ([1]; 0.003162 µM): 0.0012 | increase in dead-cell fraction ([1]; 0.01 µM): -0.0029 | increase in dead-cell fraction ([1]; 0.03162 µM): -0.003 | increase in dead-cell fraction ([1]; 0.1 µM): 0.0002 | increase in dead-cell fraction ([1]; 0.3162 µM): -0.0014 | increase in dead-cell fraction ([1]; 1 µM): -0.0001 | increase in dead-cell fraction ([1]; 3.162 µM): 0.0028 | increase in dead-cell fraction (THZ1 [2]; 0.0001 µM): -0.0005 | increase in dead-cell fraction (THZ1 [2]; 0.0003162 µM): -0.0052 | increase in dead-cell fraction (THZ1 [2]; 0.001 µM): -0.0029 | increase in dead-cell fraction (THZ1 [2]; 0.003162 µM): 0.0113 | increase in dead-cell fraction (THZ1 [2]; 0.01 µM): -0.0015 | increase in dead-cell fraction (THZ1 [2]; 0.03162 µM): 0.0274 | increase in dead-cell fraction (THZ1 [2]; 0.1 µM): 0.083 | increase in dead-cell fraction (THZ1 [2]; 0.3162 µM): 0.445 | increase in dead-cell fraction (THZ1 [2]; 1 µM): 0.589 | increase in dead-cell fraction (YKL-5-124; 0.001 µM): 0.0758 | increase in dead-cell fraction (YKL-5-124; 0.003162 µM): 0.1 | increase in dead-cell fraction (YKL-5-124; 0.01 µM): 0.103 | increase in dead-cell fraction (YKL-5-124; 0.03162 µM): 0.0843 | increase in dead-cell fraction (YKL-5-124; 0.1 µM): 0.124 | increase in dead-cell fraction (YKL-5-124; 0.3162 µM): 0.124 | increase in dead-cell fraction (YKL-5-124; 1 µM): 0.0859 | increase in dead-cell fraction (YKL-5-124; 3.162 µM): 0.172 | increase in dead-cell fraction (YKL-5-124; 10 µM): 0.199 | increase in dead-cell fraction (Flavopiridol; 0.0001 µM): 0.0065 | increase in dead-cell fraction (Flavopiridol; 0.0003162 µM): -0.0003 | increase in dead-cell fraction (Flavopiridol; 0.001 µM): 0.0038 | increase in dead-cell fraction (Flavopiridol; 0.003162 µM): -0.0072 | increase in dead-cell fraction (Flavopiridol; 0.01 µM): -0.0008 | increase in dead-cell fraction (Flavopiridol; 0.03162 µM): 0.0051 | increase in dead-cell fraction (Flavopiridol; 0.1 µM): 0.0079 | increase in dead-cell fraction (Flavopiridol; 0.3162 µM): 0.114 | increase in dead-cell fraction (Flavopiridol; 1 µM): 0.787 | increase in dead-cell fraction ([3]; 0.001 µM): -0.0036 | increase in dead-cell fraction ([3]; 0.003162 µM): -0.0058 | increase in dead-cell fraction ([3]; 0.01 µM): -0.0009 | increase in dead-cell fraction ([3]; 0.03162 µM): -0.0068 | increase in dead-cell fraction ([3]; 0.1 µM): -0.0045 | increase in dead-cell fraction ([3]; 0.3162 µM): -0.0069 | increase in dead-cell fraction ([3]; 1 µM): -0.0076 | increase in dead-cell fraction ([3]; 3.162 µM): -0.0046 | increase in dead-cell fraction ([3]; 10 µM): 0.0956 | increase in dead-cell fraction (BSJ-03-123; 0.001 µM): -0.0068 | increase in dead-cell fraction (BSJ-03-123; 0.003162 µM): -0.0064 | increase in dead-cell fraction (BSJ-03-123; 0.01 µM): -0.0053 | increase in dead-cell fraction (BSJ-03-123; 0.03162 µM): 0.0051 | increase in dead-cell fraction (BSJ-03-123; 0.1 µM): 0.0006 | increase in dead-cell fraction (BSJ-03-123; 0.3162 µM): -0.0032 | increase in dead-cell fraction (BSJ-03-123; 1 µM): 0.0245 | increase in dead-cell fraction (BSJ-03-123; 3.162 µM): 0.0364 | increase in dead-cell fraction (BSJ-03-123; 10 µM): 0.217 | increase in dead-cell fraction (THZ531; 0.0001 µM): 0.0045 | increase in dead-cell fraction (THZ531; 0.0003162 µM): -0.0031 | increase in dead-cell fraction (THZ531; 0.001 µM): 0 | increase in dead-cell fraction (THZ531; 0.003162 µM): -0.0086 | increase in dead-cell fraction (THZ531; 0.01 µM): -0.0054 | increase in dead-cell fraction (THZ531; 0.03162 µM): 0.0002 | increase in dead-cell fraction (THZ531; 0.1 µM): 0.0001 | increase in dead-cell fraction (THZ531; 0.3162 µM): 0.0691 | increase in dead-cell fraction (THZ531; 1 µM): 0.58 | increase in dead-cell fraction ([4]; 0.0001 µM): -0.0003 | increase in dead-cell fraction ([4]; 0.0003162 µM): -0.0062 | increase in dead-cell fraction ([4]; 0.001 µM): 0.0017 | increase in dead-cell fraction ([4]; 0.003162 µM): 0.0022 | increase in dead-cell fraction ([4]; 0.01 µM): 0.021 | increase in dead-cell fraction ([4]; 0.03162 µM): 0.756 | increase in dead-cell fraction ([4]; 0.1 µM): 0.832 | increase in dead-cell fraction ([4]; 0.3162 µM): 0.831 | increase in dead-cell fraction ([4]; 1 µM): 0.814 | increase in dead-cell fraction (LEE011/Ribociclib; 0.001 µM): -0.0066 | increase in dead-cell fraction (LEE011/Ribociclib; 0.003162 µM): -0.0033 | increase in dead-cell fraction (LEE011/Ribociclib; 0.01 µM): 0.001 | increase in dead-cell fraction (LEE011/Ribociclib; 0.03162 µM): -0.0061 | increase in dead-cell fraction (LEE011/Ribociclib; 0.1 µM): -0.0037 | increase in dead-cell fraction (LEE011/Ribociclib; 0.3162 µM): 0.0068 | increase in dead-cell fraction (LEE011/Ribociclib; 1 µM): 0.0043 | increase in dead-cell fraction (LEE011/Ribociclib; 3.162 µM): 0.0014 | increase in dead-cell fraction (LEE011/Ribociclib; 10 µM): 0.0135 | increase in dead-cell fraction (Neratinib/HKI272 [5]; 0.0003162 µM): -0.0005 | increase in dead-cell fraction (Neratinib/HKI272 [5]; 0.001 µM): -0.0026 | increase in dead-cell fraction (Neratinib/HKI272 [5]; 0.003162 µM): -0.0047 | increase in dead-cell fraction (Neratinib/HKI272 [5]; 0.01 µM): -0.0034 | increase in dead-cell fraction (Neratinib/HKI272 [5]; 0.03162 µM): 0.001 | increase in dead-cell fraction (Neratinib/HKI272 [5]; 0.1 µM): 0.0172 | increase in dead-cell fraction (Neratinib/HKI272 [5]; 0.3162 µM): 0.0405 | increase in dead-cell fraction (Neratinib/HKI272 [5]; 1 µM): 0.0409 | increase in dead-cell fraction (Neratinib/HKI272 [5]; 3.162 µM): 0.0594 | GR value (THZ1 [6]; 0.0001 µM): 0.968 GR | GR value (THZ1 [6]; 0.0003162 µM): 0.963 GR | GR value (THZ1 [6]; 0.001 µM): 1.04 GR | GR value (THZ1 [6]; 0.003162 µM): 0.927 GR | GR value (THZ1 [6]; 0.01 µM): 0.923 GR | GR value (THZ1 [6]; 0.03162 µM): 0.704 GR | GR value (THZ1 [6]; 0.1 µM): 0.165 GR | GR value (THZ1 [6]; 0.3162 µM): -0.351 GR | GR value (THZ1 [6]; 1 µM): -0.506 GR | GR value (Neratinib/HKI272 [7]; 0.0003162 µM): 1.04 GR | GR value (Neratinib/HKI272 [7]; 0.001 µM): 1.01 GR | GR value (Neratinib/HKI272 [7]; 0.003162 µM): 1.02 GR | GR value (Neratinib/HKI272 [7]; 0.01 µM): 0.895 GR | GR value (Neratinib/HKI272 [7]; 0.03162 µM): 0.663 GR | GR value (Neratinib/HKI272 [7]; 0.1 µM): 0.408 GR | GR value (Neratinib/HKI272 [7]; 0.3162 µM): 0.251 GR | GR value (Neratinib/HKI272 [7]; 1 µM): 0.199 GR | GR value (Neratinib/HKI272 [7]; 3.162 µM): 0.144 GR
